Laboratory results as given in patent US9944643B2, “Factor XIa inhibitors” (MERCK SHARP & DOHME CORP., priority 2014, dated 2018).

Target: purified human Factor XIa (Homo sapiens (Human), UniProt P03951)
Test: Factor XIa Assay
Format: biochemical
Experimental: The effectiveness a of compound of the present invention as an inhibitor of Coagulation Factor XIa can be determined using a relevant purified serine protease, and an appropriate synthetic substrate. The rate of hydrolysis of the chromogenic or fluorogenic substrate by the relevant serine protease was measured both in the absence and presence of compounds of the present invention. Assays were conducted at room temperature or at 37° C. […] A decrease in the rate of fluorescence change in the presence of inhibitor is indicative of enzyme inhibition. Such methods are known to one skilled in the art. The results of this assay are expressed as the inhibitory constant, Ki.
Factor XIa determinations were made in 50 mM HEPES buffer at pH 7.4 containing 150 mM NaCl, 5 mM CaCl2, and 0.1% PEG 8000 (polyethylene glycol; J T Baker or Fisher Scientific). Determinations were made using purified human Factor XIa at a final concentration of 40 pM (Sekisui Diagnostics) and the synthetic substrate, Z-Gly-Pro-Arg-AFC, TFA salt (Sigma #C0980) at a concentration of 100 μM.
Activity assays were performed by diluting a stock solution of substrate at least tenfold to a final concentration ≤0.1 Km into a solution containing enzyme or enzyme equilibrated with inhibitor. Times required to achieve equilibration between enzyme and inhibitor were determined in control experiments. Initial velocities of product formation in the absence (Vo) or presence of inhibitor (Vi) were measured. Assuming competitive inhibition, and that unity is negligible compared Km/[S], [I]/e, and [I]/e (where [S], [I], and e respectively represent the total concentrations, of substrate, inhibitor and enzyme), the equilibrium constant (Ki) for dissociation of the inhibitor from the enzyme can be obtained from the dependence of Vo/Vi on [I] shown in the following equation. Vo/Vi=1+[I]/Ki

Sequence of purified human Factor XIa (P03951 whole entry, looked up): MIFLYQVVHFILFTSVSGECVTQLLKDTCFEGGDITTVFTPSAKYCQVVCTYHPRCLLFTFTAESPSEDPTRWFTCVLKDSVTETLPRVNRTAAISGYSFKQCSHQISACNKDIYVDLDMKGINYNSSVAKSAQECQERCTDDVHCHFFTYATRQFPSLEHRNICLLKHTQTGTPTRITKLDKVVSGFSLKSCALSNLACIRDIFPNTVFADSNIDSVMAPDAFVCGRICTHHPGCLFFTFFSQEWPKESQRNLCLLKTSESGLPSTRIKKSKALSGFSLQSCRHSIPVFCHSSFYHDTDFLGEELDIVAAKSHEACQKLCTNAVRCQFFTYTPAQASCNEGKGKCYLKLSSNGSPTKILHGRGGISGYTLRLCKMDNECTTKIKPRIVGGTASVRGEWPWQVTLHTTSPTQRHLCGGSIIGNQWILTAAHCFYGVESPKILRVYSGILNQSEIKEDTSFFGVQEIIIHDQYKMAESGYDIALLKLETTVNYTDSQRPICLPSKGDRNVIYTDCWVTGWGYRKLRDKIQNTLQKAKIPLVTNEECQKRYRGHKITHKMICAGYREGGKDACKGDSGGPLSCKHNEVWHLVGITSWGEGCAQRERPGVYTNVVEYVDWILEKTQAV
Sequence of purified human Factor XIa (P03951 whole entry partner, looked up): as the sequence (P03951 whole entry, looked up) above

Compound	Ki [nM]
COC(=O)Nc1ccc2c(c1)N[C@@H](C(=O)O)CCCC[C@H](NC(=O)c1ccc(CN)c(C3CC3)c1)c1nc-2c[nH]1 [Example 3]	0.1
COCCOC(=O)Nc1ccc2c(c1)NC(=O)[C@@H](C)CCC[C@H](NC(=O)c1ccc(CN)c(C3CC3)c1)c1cc-2ccn1 [Example 8]	0.1
COC(=O)Nc1ccc2c(c1)NC(=O)CCCC[C@H](NC(=O)c1cnc(CN)c(C3CC3)c1)c1nc-2c[nH]1 [Example 2]	1.1
CC(C)COC(=O)Nc1ccc2c(c1)NC(=O)[C@@H](C)CCC[C@H](NC(=O)c1ccc(CN)c(C3CC3)c1)c1cc-2ccn1 [Example 6]	0.2
C[C@H]1CCC[C@H](NC(=O)c2ccc(CN)c(C3CC3)c2)c2cc(ccn2)-c2ccc(NC(=O)OC3CCCC3)cc2NC1=O [Example 7]	0.3
COC(=O)Nc1ccc2c(c1)NC(=O)CCCC[C@H](NC(=O)c1ccc(CN)c(C3CC3)c1)c1nc-2c[nH]1 [Example 1, Methyl [(7S)-7-({[4-(aminomethyl)-3-cyclopropylphenyl]carbonyl}amino)-2-oxo-1,2,3,4,5,6,7,9-octahydro-11,8-(azeno)-1,9-benzodiazacyclotridecin-14-yl]carbamate]	0.1
COC(=O)Nc1ccc2c(c1)NC(=O)CCCC[C@H](NC(=O)c1ccc(CN)c(C3CC3)c1)c1nc-2c(Cl)[nH]1 [Example 5]	0.05
COC(=O)Nc1ccc2c(c1)NC(=O)[C@@H](C)CCC[C@H](NC(=O)c1ccc(CN)c(C3CC3)c1)c1cc-2ccn1 [Example 4]	0.03
